Paper PMC8286840, “Identifying SARS-CoV-2 antiviral compounds by screening for small molecule inhibitors of Nsp3 papain-like protease” (Biochemical Journal, 2021)
Where a name gives a salt, the structure may show the parent alone. Read-outs that look alike come from different tables or passages of the source.

Experiments:
[1] = target: T1, SARS-CoV-2 PLpro (nsp3 1564–1878) (Severe acute respiratory syndrome coronavirus 2, UniProt P0DTD1); assay: biochemical; parameters: FRET-quenched peptide (Pro3) cleavage by PLpro, 10 min pre-incubation, slope over 20 min, normalised to no-compound control; settings: low concentration screen, read-out: % of control remaining
[2] = target: T1, SARS-CoV-2 PLpro (nsp3 1564–1878); assay: biochemical; parameters: FRET-quenched peptide (Pro3) cleavage by PLpro, 10 min pre-incubation, slope over 20 min, normalised to no-compound control; settings: high concentration screen, read-out: % of control remaining

Q: Which remaining activity at 1.25 µM ([1]; Well no.=4485) does the source give for `CCCCCC(=O)/C=C/[C@H]1[C@H](O)CC(=O)[C@@H]1C/C=C\CCCC(=O)O` [15-keto-prostaglandin E2] here?
A: 89%

Q: What about the remaining activity at 3.75 µM ([2]; Well no.=4485) of the same molecule?
A: 96.6%

Q: What does the source list for `CC(C)c1c(C(=O)Nc2ccccc2)c(-c2ccccc2)c(-c2ccc(F)cc2)n1CC[C@@H](O)C[C@@H](O)CC(=O)O` [Atorvastatin Calcium]?
A: remaining activity at 1.25 µM ([1]; Well no.=8096): 95.7%; remaining activity at 3.75 µM ([2]; Well no.=8096): 98.2%

Q: What does the source list for `O=Nc1c(-c2c(O)[nH]c3ccccc23)[nH]c2ccccc12` [Indirubin-3?-monoxime]?
A: remaining activity at 1.25 µM ([1]; Well no.=2358): 99.7%; remaining activity at 3.75 µM ([2]; Well no.=2358): 106%

Q: For `CCOC(=O)c1c(CSc2ccccc2)n(C)c2cc(Br)c(O)c(CN(C)C)c12` [Arbidol HCl], which remaining activity at 1.25 µM ([1]; Well no.=5098) is on record?
A: 104%

Q: And the remaining activity at 3.75 µM ([2]; Well no.=5098)?
A: 107%

Q: How did the remaining activity at 1.25 µM ([1]; Well no.=7118) turn out when `C[C@H](NC(=O)C(=O)Nc1ccccc1C(C)(C)C)C(=O)N[C@@H](CC(=O)O)C(=O)COc1c(F)c(F)cc(F)c1F` [Emricasan] was run?
A: 95.7%

Q: What about the remaining activity at 3.75 µM ([2]; Well no.=7118) of the same molecule?
A: 95.9%

Q: How did the remaining activity at 1.25 µM ([1]; Well no.=1044) turn out when `CCCN1CC[C@@H]2c3cc(O)ccc3CC[C@@H]21` was run?
A: 98.9%

Q: What about the remaining activity at 3.75 µM ([2]; Well no.=1044) of the same molecule?
A: 100%

Q: Which remaining activity at 1.25 µM ([1]; Well no.=7005) does the source give for `CC[C@H](NC(=O)c1c(C)c(-c2ccccc2)nc2ccccc12)c1ccccc1` [SB-222200] here?
A: 96.1%

Q: What about the remaining activity at 3.75 µM ([2]; Well no.=7005) of the same molecule?
A: 86.5%

Q: For `CC(C)=CCC[C@@H](C)[C@H]1CC[C@H]2[C@@H]3CC=C4C[C@@H](O)CC[C@]4(C)[C@H]3CC[C@]12C` [Desmosterol], which remaining activity at 1.25 µM ([1]; Well no.=5972) is on record?
A: 101%

Q: And the remaining activity at 3.75 µM ([2]; Well no.=5972)?
A: 99%

Q: With `COc1ccccc1N1CCN(CCN(C(=O)c2ccc(F)cc2)c2ccccn2)CC1` [p-MPPF dihydrochloride] as the molecule, how does the remaining activity at 1.25 µM ([1]; Well no.=899) read?
A: 100%

Q: What about the remaining activity at 3.75 µM ([2]; Well no.=899) of the same molecule?
A: 101%

Q: Which results are given for `CC1=C(O)C(=O)C=C2C1=CC=C1[C@@]2(C)CC[C@@]2(C)[C@@H]3C[C@](C)(C(=O)O)CC[C@]3(C)CC[C@]12C` [Celastrol]?
A: remaining activity at 1.25 µM ([1]; Well no.=3430): 95.7%; remaining activity at 3.75 µM ([2]; Well no.=3430): 94.6%

Q: Which results are given for `Nc1nc2c(ncn2[C@@H]2O[C@H](CO)[C@@H](O)[C@H]2O)c(=O)[nH]1` [Guanosine]?
A: remaining activity at 1.25 µM ([1]; Well no.=5248): 96.5%; remaining activity at 1.25 µM ([1]; Well no.=6833): 97.7%; remaining activity at 1.25 µM ([1]; Well no.=7708): 94.4%; remaining activity at 3.75 µM ([2]; Well no.=5248): 98%; remaining activity at 3.75 µM ([2]; Well no.=6833): 99.5%; remaining activity at 3.75 µM ([2]; Well no.=7708): 91.8%

Q: For `O=c1cc(-c2ccc(O)cc2)oc2cc(O)c([C@@H]3O[C@H](CO)[C@@H](O)[C@H](O)[C@H]3O)c(O)c12` [Isovitexin], which remaining activity at 1.25 µM ([1]; Well no.=3301) is on record?
A: 99.2%

Q: And the remaining activity at 3.75 µM ([2]; Well no.=3301)?
A: 98.6%

Q: How did the remaining activity at 1.25 µM ([1]; Well no.=8661) turn out when `Clc1ccc(Nc2nc3ccccc3c3nc(C4CCCCC4)[nH]c23)cc1Cl` [LUF6000] was run?
A: 93.9%

Q: What about the remaining activity at 3.75 µM ([2]; Well no.=8661) of the same molecule?
A: 93.1%

Q: What does the source list for `O=c1c(O)c(-c2ccc(O)cc2O)oc2cc(O)cc(O)c12` [Morin]?
A: remaining activity at 1.25 µM ([1]; Well no.=1022): 96.8%; remaining activity at 3.75 µM ([2]; Well no.=1022): 93.4%

Q: `C[N+](C)(C)CCOP(=O)(O)OP(=O)([O-])OC[C@H]1O[C@@H](n2ccc(N)nc2=O)[C@H](O)[C@@H]1O` [Citicoline sodium salt] was tested. Which remaining activity at 1.25 µM ([1]; Well no.=7726) did it give?
A: 104%

Q: What about the remaining activity at 3.75 µM ([2]; Well no.=7726) of the same molecule?
A: 110%

Q: What does the source list for `N#CCCCSC(=N)N` [Kevetrin (hydrochloride)]?
A: remaining activity at 1.25 µM ([1]; Well no.=6250): 103%; remaining activity at 3.75 µM ([2]; Well no.=6250): 103%

Q: `Cc1ccc(S(=O)(=O)/C=C/C#N)cc1` [BAY 11-7082] was tested. Which remaining activity at 1.25 µM ([1]; Well no.=79) did it give?
A: 102%

Q: What about the remaining activity at 1.25 µM ([1]; Well no.=2360) of the same molecule?
A: 98.2%

Q: And the remaining activity at 3.75 µM ([2]; Well no.=79)?
A: 99.5%

Q: What about the remaining activity at 3.75 µM ([2]; Well no.=2360) of the same molecule?
A: 99.1%

Q: And the remaining activity at 3.75 µM ([2]; Well no.=6204)?
A: 104%

Q: Which results are given for `Cc1nc(NC(=O)N2CCC[C@H]2C(N)=O)sc1-c1ccnc(C(C)(C)C(F)(F)F)c1` [BYL719]?
A: remaining activity at 1.25 µM ([1]; Well no.=5163): 102%; remaining activity at 3.75 µM ([2]; Well no.=5163): 104%

Q: `Cc1ccc(-n2nc(C(C)(C)C)cc2NC(=O)Nc2ccc(OCCN3CCOCC3)c3ccccc23)cc1` [BIRB 796 (Doramapimod)] was tested. Which remaining activity at 1.25 µM ([1]; Well no.=5264) did it give?
A: 89.3%

Q: What about the remaining activity at 3.75 µM ([2]; Well no.=5264) of the same molecule?
A: 89.7%

Q: With `CCOCCn1c(C2CCN(CCc3ccc(C(C)(C)C(=O)O)cc3)CC2)nc2ccccc21` [Bilastine] as the molecule, how does the remaining activity at 1.25 µM ([1]; Well no.=6188) read?
A: 101%

Q: And the remaining activity at 3.75 µM ([2]; Well no.=6188)?
A: 100%

Q: `Nc1ncnc2c1ncn2[C@@H]1O[C@H](COP(=O)(O)O)[C@@H](O)[C@H]1O` [Adenosine monophosphate] was tested. Which remaining activity at 1.25 µM ([1]; Well no.=7109) did it give?
A: 103%

Q: What about the remaining activity at 1.25 µM ([1]; Well no.=7816) of the same molecule?
A: 107%

Q: And the remaining activity at 3.75 µM ([2]; Well no.=7109)?
A: 102%

Q: And the remaining activity at 3.75 µM ([2]; Well no.=7816)?
A: 104%

Q: `Clc1cccc(Cl)c1NC1=NCCN1` [Clonidine.HCl] was tested. Which remaining activity at 1.25 µM ([1]; Well no.=1691) did it give?
A: 96%

Q: What about the remaining activity at 3.75 µM ([2]; Well no.=1691) of the same molecule?
A: 94.2%

Q: What does the source list for `CCCN1CCCC[C@H]1C(=O)Nc1c(C)cccc1C` [Ropivacaine HCl]?
A: remaining activity at 1.25 µM ([1]; Well no.=4698): 99%; remaining activity at 3.75 µM ([2]; Well no.=4698): 96.6%

Q: How did the remaining activity at 1.25 µM ([1]; Well no.=6213) turn out when `Cc1cn([C@@H]2O[C@H](CO)[C@@H](O)[C@H]2O)c(=O)[nH]c1=O` [5-Methyluridine] was run?
A: 101%

Q: And the remaining activity at 1.25 µM ([1]; Well no.=8891)?
A: 96.6%

Q: And the remaining activity at 3.75 µM ([2]; Well no.=6213)?
A: 91.5%

Q: And the remaining activity at 3.75 µM ([2]; Well no.=8891)?
A: 98.5%

Q: For `Nc1nc(F)nc2c1ncn2[C@@H]1O[C@H](CO)[C@@H](O)[C@@H]1O` [Fludarabine (Fludara)], which remaining activity at 1.25 µM ([1]; Well no.=5249) is on record?
A: 98.3%

Q: And the remaining activity at 3.75 µM ([2]; Well no.=5249)?
A: 99.9%

Q: Which results are given for `CCCCNc1c(C(=O)OCC)c(C)nc2c1cnn2CC` [Tracazolate]?
A: remaining activity at 1.25 µM ([1]; Well no.=1472): 93.2%; remaining activity at 3.75 µM ([2]; Well no.=1472): 93.7%

Q: For `CN(C)CCN(C)CCc1ccc(Cl)c(Cl)c1` [BD-1047 (dihydrobromide)], which remaining activity at 1.25 µM ([1]; Well no.=7287) is on record?
A: 95.4%

Q: And the remaining activity at 3.75 µM ([2]; Well no.=7287)?
A: 97.8%

Q: What does the source list for `CCCC(=O)Nc1ccc(OCC(O)CNC(C)C)c(C(C)=O)c1` (stereo not shown) [Acebutolol (hydrochloride)]?
A: remaining activity at 1.25 µM ([1]; Well no.=6747): 101%; remaining activity at 3.75 µM ([2]; Well no.=6747): 97.2%

Q: Which results are given for `COc1cc(Nc2ncc(F)c(Nc3ccc4c(n3)NC(=O)C(C)(C)O4)n2)cc(OC)c1OC` [R406]?
A: remaining activity at 1.25 µM ([1]; Well no.=4816): 101%; remaining activity at 3.75 µM ([2]; Well no.=4816): 99.1%

Q: What does the source list for `COc1ccc2[nH]c([S@@+]([O-])Cc3ncc(C)c(OC)c3C)nc2c1` [Esomeprazole]?
A: remaining activity at 1.25 µM ([1]; Well no.=2032): 108%; remaining activity at 3.75 µM ([2]; Well no.=2032): 106%

Q: What does the source list for `CC(C)c1ccc2c(c1)c(SC(C)(C)C)c(CC(C)(C)C(=O)O)n2Cc1ccc(Cl)cc1` [MK-886 (L-663,536)]?
A: remaining activity at 1.25 µM ([1]; Well no.=8678): 96.7%; remaining activity at 3.75 µM ([2]; Well no.=8678): 94.2%

Q: Which remaining activity at 1.25 µM ([1]; Well no.=2008) does the source give for `CN1[C@@H]2CC[C@H]1C[C@@H](OC(=O)c1c[nH]c3ccccc13)C2` [Tropisetron] here?
A: 99.1%

Q: And the remaining activity at 1.25 µM ([1]; Well no.=6607)?
A: 103%

Q: And the remaining activity at 3.75 µM ([2]; Well no.=2008)?
A: 101%
